Test results published in patent US20060052357A1, “Organometallic anti-tumour agent” (priority 2001, published 2006).

Test system: tumor cell cultures (KML)
Test: Suppression of cell proliferation in tumor cell cultures (KML)
Type: cell-based, mice
Settings: incubation 24 hours
Protocol: The effect of the substances MOC.melphalan and MOC.tegafur of the invention on the proliferative activity, morphology and protein synthesis was investigated on tumor cell cultures (KML). This took place with the mice separated out of the melanoma-16 line. 80 000 cells/ml were distributed in 3 ml of DMEM with the addition of embryonic calf serum, 200 μ/mol of glutamine and antibiotic. After cultivation of the cells at a temperature of 37° C. for 24 hours (logarithmic cell growth phase), the MOC substances were added in the concentration of 10 and 100 μg/ml. After incubation for 24 hours, the number of live cells was determined. In parallel, the fixed specimens of the cells were prepared for morphological analysis.

For `CC(=O)C=C(C)[O-].CC(=O)C=C(C)[O-].NC(Cc1ccc(N(CCCl)CCCl)cc1)C(=O)O.[Cu+2]` (centres unmarked) [MOC.melphalan, (C5H7O2)2—Cu—C13H18Cl2N2O2], the “Suppression of growth cells” value (10 μg/ml) was 30% and the “Suppression of growth cells” value (100 μg/ml) was 95%.
